From US9376442B2, “Methylpyrrolopyrimidinecarboxamides” (Takeda GmbH, priority 2009, dated 2016)

Target: T1, PDE5A1 (Homo sapiens, UniProt O76074)
T1 construct: from tissue; host or cells: human platelets from fresh donor blood (10,000 x g supernatant of sonicated lysate)
Test: Inhibition of type 5 phosphodiesterase (PDE5) activity, modified SPA test with human platelet lysate
Type: biochemical
Conditions: 0.5 μM cGMP, read-out: PDE5A1 inhibitory values [measured as −log IC50 (mol/l)] (converted)
How it was run: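 Scintillation proximity assay with [3H]cGMP tracer at 0.5 μM total cGMP, stopped after 15 min with beads containing IBMX. PDE3 and PDE2 activities suppressed with motapizone (1 μM) and a PDE2 inhibitor (10 nM). Human platelet supernatant served as the enzyme, with compound preincubated 5 min at 37° C; IC50 values from concentration-effect curves.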

IC50 [nM] | Compound
< 1 | CC(=O)c1ccc(OCC2CC2)c(-c2ncnc3c(C(=O)N[C@H]4CC[C@H](NC(=O)[C@H](C)O)CC4)c(C)[nH]c23)c1 [Example F105, 4-[5-Acetyl-2-(cyclopropylmethoxy)phenyl]-N-(trans-4-{[(2S)-2-hydroxypropanoyl]amino}cyclohexyl)-6-methyl-5H-pyrrolo[3,2-d]pyrimidine-7-carboxamide]
< 1 | COc1cc(OCC2CC2)c(-c2ncnc3c(C(=O)NC4CCN(C(=O)[C@H](C)O)CC4)c(C)[nH]c23)cc1F [Example F84, 4-[2-(Cyclopropylmethoxy)-5-fluoro-4-methoxyphenyl]-N-{1-[(2S)-2-hydroxypropanoyl]piperidin-4-yl}-6-methyl-5H-pyrrolo[3,2-d]pyrimidine-7-carboxamide]
< 1 | Cc1[nH]c2c(-c3ccc(F)cc3OCC3CC3)ncnc2c1C(=O)N[C@H]1CC[C@@H](NC(=O)[C@H](C)O)CC1 [Example F16, 4-[2-(Cyclopropylmethoxy)-4-fluorophenyl]-N-(cis-4-{[(2S)-2-hydroxypropanoyl]amino}cyclohexyl)-6-methyl-5H-pyrrolo[3,2-d]pyrimidine-7-carboxamide]
< 1 | CCC(=O)N[C@H]1CC[C@H](NC(=O)c2c(C)[nH]c3c(-c4cc(F)c(OC)cc4OCC4CC4)ncnc23)CC1 [Example E136, 4-[2-(Cyclopropylmethoxy)-5-fluoro-4-methoxyphenyl]-6-methyl-N-[trans-4-(propionylamino)cyclohexyl]-5H-pyrrolo[3,2-d]pyrimidine-7-carboxamide]
< 1 | CCOC(=O)N[C@H]1CC[C@@H](NC(=O)c2c(C)[nH]c3c(-c4c(OCC5CC5)ccc5c4OCO5)ncnc23)CC1 [Example E12, Ethyl {cis-4-[({4-[5-(cyclopropylmethoxy)-1,3-benzodioxol-4-yl]-6-methyl-5H-pyrrolo[3,2-d]pyrimidin-7-yl}carbonyl)amino]cyclohexyl}carbamate]
1 to 10 | COCC(=O)N1CCC(NC(=O)c2c(C)[nH]c3c(-c4cc(C(C)C)ccc4OCC4CC4)ncnc23)CC1 [Example E158, 4-[2-(Cyclopropylmethoxy)-5-(propan-2-yl)phenyl]-N-[1-(methoxyacetyl)piperidin-4-yl]-6-methyl-5H-pyrrolo[3,2-d]pyrimidine-7-carboxamide]
< 1 | CCC(=O)N[C@H]1CC[C@H](NC(=O)c2c(C)[nH]c3c(-c4cc(OC)c(F)cc4OCC4CC4)ncnc23)CC1 [Example E107, 4-[2-(Cyclopropylmethoxy)-4-fluoro-5-methoxyphenyl]-6-methyl-N-[trans-4-(propionylamino)cyclohexyl]-5H-pyrrolo[3,2-d]pyrimidine-7-carboxamide]
< 1 | COc1cc(-c2ncnc3c(C(=O)N[C@H]4CC[C@@H](NC(=O)[C@H](C)O)CC4)c(C)[nH]c23)c(OCC2CC2)cc1F [Example F70, 4-[2-(Cyclopropylmethoxy)-4-fluoro-5-methoxyphenyl]-N-(cis-4-{[(2S)-2-hydroxypropanoyl]amino}cyclohexyl)-6-methyl-5H-pyrrolo[3,2-d]pyrimidine-7-carboxamide]
1 to 10 | COc1ccc(OCC2CC2)c(-c2ncnc3c(C(=O)N[C@@H]4CN(C(=O)CO)C[C@H]4O)c(C)[nH]c23)c1 (relative stereo) [Example F119, 4-[2-(Cyclopropylmethoxy)-5-methoxyphenyl]-N-[(3R*,4R*)-1-glycoloyl-4-hydroxypyrrolidin-3-yl]-6-methyl-5H-pyrrolo[3,2-d]pyrimidine-7-carboxamide]
1 to 10 | CC(=O)N1CC[C@@H](NC(=O)c2c(C)[nH]c3c(-c4ccc(F)cc4OCC4CC4)ncnc23)C1 [Example E28, N-[(3R)-1-acetylpyrrolidin-3-yl]-4-[2-(cyclopropylmethoxy)-4-fluorophenyl]-6-methyl-5H-pyrrolo[3,2-d]pyrimidine-7-carboxamide]
1 to 10 | CCOc1ccc(F)cc1-c1ncnc2c(C(=O)NC3CCN(C(=O)CO)CC3)c(C)[nH]c12 [Example F32]
< 1 | COCC(=O)N[C@H]1CC[C@@H](NC(=O)c2c(C)[nH]c3c(-c4cc(C)c(F)cc4OCC4CC4)ncnc23)CC1 [Example E127, 4-[2-(Cyclopropylmethoxy)-4-fluoro-5-methylphenyl]-N-{cis-4-[(methoxyacetyl)amino]cyclohexyl}-6-methyl-5H-pyrrolo[3,2-d]pyrimidine-7-carboxamide]
1 to 10 | Cc1[nH]c2c(-c3ccc(F)cc3OCC3CC3)ncnc2c1C(=O)N[C@@H]1CCN(C(=O)CO)C1 [Example F17, 4-[2-(Cyclopropylmethoxy)-4-fluorophenyl]-N-[(3R)-1-(hydroxyacetyl)pyrrolidin-3-yl]-6-methyl-5H-pyrrolo[3,2-d]pyrimidine-7-carboxamide]
< 1 | COc1cc(OCC2CC2)c(-c2ncnc3c(C(=O)N[C@H]4CC[C@H](NC(=O)CO)CC4)c(C)[nH]c23)cc1F [Example F85, 4-[2-(Cyclopropylmethoxy)-5-fluoro-4-methoxyphenyl]-N-[trans-4-(glycoloylamino)cyclohexyl]-6-methyl-5H-pyrrolo[3,2-d]pyrimidine-7-carboxamide]
< 1 | COc1ccc(OCC2CC2)c(-c2ncnc3c(C(=O)N[C@@H]4CCN(C(C)=O)C[C@H]4O)c(C)[nH]c23)c1 (relative stereo) [Example E78, N-[(3R*,4R*)-1-acetyl-3-hydroxypiperidin-4-yl]-4-[2-(cyclopropylmethoxy)-5-methoxyphenyl]-6-methyl-5H-pyrrolo[3,2-d]pyrimidine-7-carboxamide]
< 1 | COc1cc(OCC2CC2)c(-c2ncnc3c(C(=O)N[C@@H]4CCN(C(C)=O)C4)c(C)[nH]c23)cc1F [Example E186, N-[(3R)-1-Acetylpyrrolidin-3-yl]-4-[2-(cyclopropylmethoxy)-5-fluoro-4-methoxyphenyl]-6-methyl-5H-pyrrolo[3,2-d]pyrimidine-7-carboxamide]
< 1 | CCC(=O)N1CC[C@@H](NC(=O)c2c(C)[nH]c3c(-c4cc(OC)ccc4OCC4CC4)ncnc23)C1 [Example E76, 4-[2-(Cyclopropylmethoxy)-5-methoxyphenyl]-6-methyl-N-[(3R)-1-propionylpyrrolidin-3-yl]-5H-pyrrolo[3,2-d]pyrimidine-7-carboxamide]
< 1 | Cc1cc(-c2ncnc3c(C(=O)N[C@H]4CC[C@H](NC(=O)[C@H](C)O)CC4)c(C)[nH]c23)c(OCC2CC2)cc1F [Example F78, 4-[2-(Cyclopropylmethoxy)-4-fluoro-5-methylphenyl]-N-(trans-4-{[(2S)-2-hydroxypropanoyl]amino}cyclohexyl)-6-methyl-5H-pyrrolo[3,2-d]pyrimidine-7-carboxamide]
< 1 | Cc1ccc(OCC2CC2)c(-c2nc(C)nc3c(C(=O)NC4CCN(C(=O)[C@H](C)O)CC4)c(C)[nH]c23)c1 [Example F107, 4-[2-(Cyclopropylmethoxy)-5-methylphenyl]-N-{1-[(2S)-2-hydroxypropanoyl]piperidin-4-yl}-2,6-dimethyl-5H-pyrrolo[3,2-d]pyrimidine-7-carboxamide]
< 1 | CCOC(=O)N1CC[C@@H](NC(=O)c2c(C)[nH]c3c(-c4cc(OC)c(F)cc4OCC4CC4)ncnc23)C1 [Example E182, Ethyl (3R)-3-[({4-[2-(cyclopropylmethoxy)-4-fluoro-5-methoxyphenyl]-6-methyl-5H-pyrrolo[3,2-d]pyrimidin-7-yl}carbonyl)amino]pyrrolidine-1-carboxylate]
< 1 | CC(=O)N[C@H]1CC[C@@H](NC(=O)c2c(C)[nH]c3c(-c4c(OCC5CC5)ccc5c4OCO5)ncnc23)CC1 [Example E9, N-(cis-4-acetamidocyclohexyl)-4-[5-(cyclopropylmethoxy)-1,3-benzodioxol-4-yl]-6-methyl-5H-pyrrolo[3,2-d]pyrimidine-7-carboxamide]
< 1 | Cc1[nH]c2c(-c3c(OCC4CC4)ccc4c3OCO4)ncnc2c1C(=O)N[C@@H]1CN(C(=O)CO)C[C@H]1O (relative stereo) [Example F9, 4-[5-(Cyclopropylmethoxy)-1,3-benzodioxol-4-yl]-N-[(3R*,4R*)-1-glycoloyl-4-hydroxypyrrolidin-3-yl]-6-methyl-5H-pyrrolo[3,2-d]pyrimidine-7-carboxamide]
< 1 | CCC(=O)N1CC[C@@H](NC(=O)c2c(C)[nH]c3c(-c4ccc(OC)cc4OCC4CC4)ncnc23)C1 [Example E61, 4-[2-(Cyclopropylmethoxy)-4-methoxyphenyl]-6-methyl-N-[(3R)-1-propionylpyrrolidin-3-yl]-5H-pyrrolo[3,2-d]pyrimidine-7-carboxamide]
< 1 | COCC(=O)N[C@H]1CC[C@H](NC(=O)c2c(C)[nH]c3c(-c4cc(C(C)=O)ccc4OCC4CC4)ncnc23)CC1 [Example E168, 4-[5-Acetyl-2-(cyclopropylmethoxy)phenyl]-N-{trans-4-[(methoxyacetyl)amino]cyclohexyl}-6-methyl-5H-pyrrolo[3,2-d]pyrimidine-7-carboxamide]
1 to 10 | CCOc1ccc(F)cc1-c1ncnc2c(C(=O)NC3CCN(C(=O)COC)CC3)c(C)[nH]c12 [Example E54, 4-(2-Ethoxy-5-fluorophenyl)-N-[1-(methoxyacetyl)piperidin-4-yl]-6-methyl-5H-pyrrolo[3,2-d]pyrimidine-7-carboxamide]
< 1 | Cc1[nH]c2c(-c3c(OCC4CC4)ccc4c3OCO4)ncnc2c1C(=O)NC1CCN(C(=O)CO)CC1 [Example F1, 4-[5-(Cyclopropylmethoxy)-1,3-benzodioxol-4-yl]-N-(1-glycoloylpiperidin-4-yl)-6-methyl-5H-pyrrolo[3,2-d]pyrimidine-7-carboxamide]
< 1 | CCC(=O)N1CC[C@@H](NC(=O)c2c(C)[nH]c3c(-c4ccc(F)cc4OCC4CC4)ncnc23)C1 [Example E29, 4-[2-(Cyclopropylmethoxy)-4-fluorophenyl]-6-methyl-N-[(3R)-1-propanoylpyrrolidin-3-yl]-5H-pyrrolo[3,2-d]pyrimidine-7-carboxamide]
